Literature values, collected in patent US20170196950A1, “METHOD FOR PRODUCING AUTOLOGOUS TOLEROGENIC DENDRITIC CELLS (TOLDCS) WITH SPECIFIC ANTIGENS AND THEIR USE IN THE PREPARATION OF A MEDICAMENT USEFUL FOR THE TREATMENT OF SYSTEMIC LUPUS ERYTHEMATOSUS (SLE)” (PONTIFICIA UNIVERSIDAD CATOLICA DE CHILE, priority 2014, published 2017).

Tests used:
[1] = test system: lupus nephritis patients; conditions: maintenance phase
[2] = test system: lupus patients; conditions: controlled clinical studies

Patients withdrawn from the study [1] | Molecule | Patients who presented serious adverse effects [1] | Efficacy in lupus [2]
25.2% | COc1c(C)c2c(c(O)c1C/C=C(\C)CCC(=O)OCCN1CCOCC1)C(=O)OC2 [MMF, mycophenolate mofetil] | 23.5% | 
39.6% | Cn1cnc([N+](=O)[O-])c1Sc1ncnc2nc[nH]c12 [azathioprine] | 33.3% | 
 | rituximab |  | no efficacy
